Results from ChEMBL document CHEMBL2046424, “Synthesis and anti Methicillin resistant Staphylococcus aureus activity of substituted chalcones alone and in combination with non-beta-lactam antibiotics” (2012).
Values after ≈ are worked out from the molar mass of the structure shown. Active and inactive are the calls of the source. No cut-off for these calls is given here.

Experiments:
[1] = test system: Staphylococcus aureus; assay: Antibacterial activity against methicillin-sensitive Staphylococcus aureus ATCC 25923 at 256 ug/ml after 24 hrs by disc diffusion method; format: functional, organism-based
[2] = test system: Staphylococcus aureus; assay: Antibacterial activity against methicillin-resistant Staphylococcus aureus ATCC 43300 at 256 ug/ml after 24 hrs by disc diffusion method; format: functional, organism-based
[3] = test system: Staphylococcus aureus; assay: Antibacterial activity against methicillin-sensitive Staphylococcus aureus ATCC 25923 after 24 hrs by microdilution method; format: functional
[4] = test system: Staphylococcus aureus; assay: Antibacterial activity against methicillin-resistant Staphylococcus aureus ATCC 43300 at 30 ug/ml after 24 hrs by disc diffusion method; format: functional; conditions: ATCC 43300, 24 h, read-out: DIZ
[5] = test system: Staphylococcus aureus; assay: Antibacterial activity against methicillin-resistant Staphylococcus aureus ATCC 43300 after 24 hrs by microdilution method; format: functional
[6] = test system: Staphylococcus aureus; assay: Antibacterial activity against methicillin-sensitive Staphylococcus aureus ATCC 25923 at 30 ug/ml after 24 hrs by disc diffusion method; format: functional; conditions: ATCC 25923, 24 h, read-out: DIZ
[7] = test system: Staphylococcus aureus; assay: microbe, parasite or virus in culture; conditions: ATCC 43300, 24 h, read-out: DIZ
Description: Antibacterial activity against methicillin-resistant Staphylococcus aureus ATCC 43300 at 5 ug/ml after 24 hrs by disc diffusion method

[8] = test system: Staphylococcus aureus; assay: microbe, parasite or virus in culture; conditions: ATCC 25923, 24 h, read-out: DIZ
Description: Antibacterial activity against methicillin-sensitive Staphylococcus aureus ATCC 25923 at 5 ug/ml after 24 hrs by disc diffusion method

[9] = test system: Staphylococcus aureus; assay: Antibacterial activity against methicillin-resistant Staphylococcus aureus ATCC 43300 at 102.4 mg/ml after 24 hrs by disc diffusion method; format: functional; conditions: ATCC 43300, 24 h, read-out: DIZ
[10] = test system: Staphylococcus aureus; assay: Antibacterial activity against methicillin-resistant Staphylococcus aureus ATCC 43300 after 24 hrs by microdilution method in presence of non-beta lactam antibiotic ciprofloxacin; format: functional
[11] = test system: Staphylococcus aureus; assay: Antibacterial activity against methicillin-sensitive Staphylococcus aureus ATCC 25923 after 24 hrs by microdilution method in presence of non-beta lactam antibiotic ciprofloxacin; format: functional
[12] = test system: Staphylococcus aureus; assay: Antibacterial activity against methicillin-resistant Staphylococcus aureus ATCC 43300 after 24 hrs by microdilution method in presence of non-beta lactam antibiotic Doxycycline; format: functional
[13] = test system: Staphylococcus aureus; assay: Antibacterial activity against methicillin-sensitive Staphylococcus aureus ATCC 25923 at 102.4 mg/ml after 24 hrs by disc diffusion method; format: functional; conditions: ATCC 25923, 24 h, read-out: DIZ
[14] = test system: Staphylococcus aureus; assay: Antibacterial activity against methicillin-sensitive Staphylococcus aureus ATCC 25923 after 24 hrs by microdilution method in presence of non-beta lactam antibiotic Doxycycline; format: functional
[15] = test system: Staphylococcus aureus; assay: Antibacterial activity against methicillin-resistant Staphylococcus aureus ATCC 43300 at 15 ug/disc after 24 hrs by disc diffusion method; format: functional, organism-based
[16] = test system: Staphylococcus aureus; assay: Antibacterial activity against methicillin-sensitive Staphylococcus aureus ATCC 25923 at 15 ug/ml after 24 hrs by disc diffusion method; format: functional; conditions: ATCC 25923, 24 h, read-out: DIZ
[17] = test system: Staphylococcus aureus; assay: Antibacterial activity against methicillin-sensitive Staphylococcus aureus ATCC 25923 after 24 hrs by microdilution method in presence of non-beta lactam antibiotic gentamycin; format: functional
[18] = test system: Staphylococcus aureus; assay: Antibacterial activity against methicillin-resistant Staphylococcus aureus ATCC 43300 after 24 hrs by microdilution method in presence of non-beta lactam antibiotic gentamycin; format: functional
[19] = test system: Staphylococcus aureus; assay: Antibacterial activity against methicillin-sensitive Staphylococcus aureus ATCC 25923 at 2 ug/ml after 24 hrs by disc diffusion method; format: functional; conditions: ATCC 25923, 24 h, read-out: DIZ
[20] = test system: Staphylococcus aureus; assay: Antibacterial activity against methicillin-resistant Staphylococcus aureus ATCC 43300 at 2 ug/disc after 24 hrs by disc diffusion method; format: functional, organism-based

## O=C(/C=C/c1ccccc1)c1ccccc1O
[1]
  diameter of the inhibition zone (DIZ): inactive
[2]
  diameter of the inhibition zone (DIZ): inactive

## C[C@H]1c2cccc(O)c2C(=O)C2=C(O)[C@]3(O)C(=O)C(C(N)=O)=C(O)[C@@H](N(C)C)[C@@H]3[C@@H](O)[C@@H]21.O [DOXYCYCLINE]
[3]; ATCC 25923, 24 h
  MIC: 8 µg/mL
[4]
  zone of inhibition at 30 µg/mL: 27 mm
[5]; ATCC 43300, 24 h
  MIC: 4 µg/mL
[6]
  zone of inhibition at 30 µg/mL: 27 mm

## COc1ccccc1/C=C/C(=O)c1ccccc1O
[1]
  diameter of the inhibition zone (DIZ): inactive
[2]
  diameter of the inhibition zone (DIZ): inactive

## O=C(N[C@H](CO)[C@H](O)c1ccc([N+](=O)[O-])cc1)C(Cl)Cl [CHLORAMPHENICOL]
[4]
  zone of inhibition at 30 µg/mL: 26 mm
[6]
  zone of inhibition at 30 µg/mL: 25 mm

## O=C(/C=C/c1ccc(Cl)cc1)c1ccccc1O
[1]
  diameter of the inhibition zone (DIZ): inactive
[2]
  diameter of the inhibition zone (DIZ): inactive

## O=C(O)c1cn(C2CC2)c2cc(N3CCNCC3)c(F)cc2c1=O [CIPROFLOXACIN]
[3]; ATCC 25923, 24 h
  MIC: 0.25 µg/mL (≈ 0.754 µM)
[7]
  zone of inhibition at 5 µg/mL: 21 mm
[8]
  zone of inhibition at 5 µg/mL: 27 mm
[5]; ATCC 43300, 24 h
  MIC: 0.5 µg/mL (≈ 1.51 µM)

## COc1ccccc1/C=C/C(=O)c1ccc(Br)cc1
[1]
  diameter of the inhibition zone (DIZ): inactive
[2]
  diameter of the inhibition zone (DIZ): inactive

## COc1ccc2cc3[n+](cc2c1OC)CCc1cc2c(cc1-3)OCO2 [BERBERINE]
[5]; ATCC 43300, 24 h
  MIC: 128 µg/mL

## O=C(/C=C/c1ccccc1)c1ccccc1
[1]
  diameter of the inhibition zone (DIZ): inactive
[2]
  diameter of the inhibition zone (DIZ): inactive

## O=C(/C=C/c1ccccc1)c1ccc(Br)cc1
[1]
  diameter of the inhibition zone (DIZ): inactive
[2]
  diameter of the inhibition zone (DIZ): inactive

## COc1ccc(C(=O)/C=C/c2ccccc2)c(O)c1
[1]
  diameter of the inhibition zone (DIZ): inactive
[2]
  diameter of the inhibition zone (DIZ): inactive

## COc1ccc(C(=O)/C=C/c2cc(OC)c(OC)c(OC)c2)c(O)c1
[1]
  diameter of the inhibition zone (DIZ): inactive
[2]
  diameter of the inhibition zone (DIZ): inactive

## O=C(/C=C/c1ccc(O)cc1)c1ccccc1 [4-HYDROXYCHALCONE]
[9]
  zone of inhibition at 102400 µg/mL: 9 mm
[3]; ATCC 25923, 24 h
  MIC: 64 µg/mL (≈ 285 µM)
[10]
  fractional inhibitory concentration index (FICI): 0.25
[11]
  fractional inhibitory concentration index (FICI): 0.31
[12]
  fractional inhibitory concentration index (FICI): 0.62
[13]
  zone of inhibition at 102400 µg/mL: 10 mm
[5]; ATCC 43300, 24 h
  MIC: 32 µg/mL (≈ 143 µM)

## COc1cccc(/C=C/C(=O)c2ccc(Br)cc2)c1OC
[1]
  diameter of the inhibition zone (DIZ): inactive
[2]
  diameter of the inhibition zone (DIZ): inactive

## COc1ccc(C(=O)/C=C/c2ccc(OC)c(OC)c2)c(O)c1
[1]
  diameter of the inhibition zone (DIZ): inactive
[2]
  diameter of the inhibition zone (DIZ): inactive

## O=C(/C=C/c1ccccc1O)c1ccccc1
[9]
  zone of inhibition at 102400 µg/mL: 11 mm
[3]; ATCC 25923, 24 h
  MIC: 32 µg/mL (≈ 143 µM)
[10]
  fractional inhibitory concentration index (FICI): 0.75
[12]
  fractional inhibitory concentration index (FICI): 0.15
[13]
  zone of inhibition at 102400 µg/mL: 11 mm
[14]
  fractional inhibitory concentration index (FICI): 0.31
[5]; ATCC 43300, 24 h
  MIC: 64 µg/mL (≈ 285 µM)

## COc1ccc(C(=O)/C=C/c2ccc(OC)cc2OC)c(O)c1
[1]
  diameter of the inhibition zone (DIZ): inactive
[2]
  diameter of the inhibition zone (DIZ): inactive

## COc1ccc(/C=C/C(=O)c2ccccc2O)cc1OC
[1]
  diameter of the inhibition zone (DIZ): inactive
[2]
  diameter of the inhibition zone (DIZ): inactive

## COc1ccccc1/C=C/C(=O)c1ccccc1
[1]
  diameter of the inhibition zone (DIZ): inactive
[2]
  diameter of the inhibition zone (DIZ): inactive

## COc1ccc(/C=C/C(=O)c2ccccc2O)c(OC)c1
[1]
  diameter of the inhibition zone (DIZ): inactive
[2]
  diameter of the inhibition zone (DIZ): inactive

## COc1cccc(/C=C/C(=O)c2ccc(Br)cc2)c1
[1]
  diameter of the inhibition zone (DIZ): inactive
[2]
  diameter of the inhibition zone (DIZ): inactive

## CC[C@H]1OC(=O)[C@H](C)[C@@H](O[C@H]2C[C@@](C)(OC)[C@@H](O)[C@H](C)O2)[C@H](C)[C@@H](O[C@@H]2O[C@H](C)C[C@H](N(C)C)[C@H]2O)[C@](C)(O)C[C@@H](C)C(=O)[C@H](C)[C@@H](O)[C@]1(C)O [ERYTHROMYCIN]
[15]
  diameter of the inhibition zone (DIZ): inactive
[16]
  zone of inhibition at 15 µg/mL: 25 mm

## GENTAMICIN
[3]
  MIC: 1 µg/mL
[5]
  MIC: 4 µg/mL

## O=C(/C=C/c1ccccc1O)c1ccccc1O
[9]
  zone of inhibition at 102400 µg/mL: 14 mm
[3]; ATCC 25923, 24 h
  MIC: 64 µg/mL (≈ 266 µM)
[17]
  fractional inhibitory concentration index (FICI): 0.36
[10]
  fractional inhibitory concentration index (FICI): 0.62
[11]
  fractional inhibitory concentration index (FICI): 1.5
[12]
  fractional inhibitory concentration index (FICI): 0.15
[13]
  zone of inhibition at 102400 µg/mL: 14 mm
[18]
  fractional inhibitory concentration index (FICI): 0.5
[14]
  fractional inhibitory concentration index (FICI): 0.25
[5]; ATCC 43300, 24 h
  MIC: 64 µg/mL (≈ 266 µM)

## COc1ccc(/C=C/C(=O)c2ccc(Br)cc2)cc1
[1]
  diameter of the inhibition zone (DIZ): inactive
[2]
  diameter of the inhibition zone (DIZ): inactive

## COc1cccc(/C=C/C(=O)c2ccccc2)c1OC
[1]
  diameter of the inhibition zone (DIZ): inactive
[2]
  diameter of the inhibition zone (DIZ): inactive

## CN[C@H](CC(C)C)C(=O)N[C@H]1C(=O)N[C@@H](CC(N)=O)C(=O)N[C@H]2C(=O)N[C@H]3C(=O)N[C@H](C(=O)N[C@H](C(=O)O)c4cc(O)cc(O)c4-c4cc3ccc4O)[C@H](O)c3ccc(c(Cl)c3)Oc3cc2cc(c3O[C@@H]2O[C@H](CO)[C@@H](O)[C@H](O)[C@H]2O[C@H]2C[C@](C)(N)[C@H](O)[C@H](C)O2)Oc2ccc(cc2Cl)[C@H]1O [VANCOMYCIN]
[4]
  zone of inhibition at 30 µg/mL: 16 mm
[5]; ATCC 43300, 24 h
  MIC: 8 µg/mL (≈ 5.52 µM)
[6]
  zone of inhibition at 30 µg/mL: 17 mm

## O=C(/C=C/c1ccccc1O)c1ccc(Br)cc1
[9]
  zone of inhibition at 102400 µg/mL: 13 mm
[3]; ATCC 25923, 24 h
  MIC: 32 µg/mL (≈ 106 µM)
[12]
  fractional inhibitory concentration index (FICI): 0.62
[13]
  zone of inhibition at 102400 µg/mL: 13 mm
[14]
  fractional inhibitory concentration index (FICI): 0.37
[5]; ATCC 43300, 24 h
  MIC: 64 µg/mL (≈ 211 µM)

## COc1ccc(/C=C/C(=O)c2ccccc2O)cc1
[1]
  diameter of the inhibition zone (DIZ): inactive
[2]
  diameter of the inhibition zone (DIZ): inactive

## COc1ccc(C(=O)/C=C/c2ccc(Cl)c(Cl)c2)c(O)c1
[1]
  diameter of the inhibition zone (DIZ): inactive
[2]
  diameter of the inhibition zone (DIZ): inactive

## COc1ccc(/C=C/C(=O)c2ccc(Br)cc2)cc1OC
[1]
  diameter of the inhibition zone (DIZ): inactive
[2]
  diameter of the inhibition zone (DIZ): inactive

## CCC[C@@H]1C[C@@H](C(=O)N[C@@H]([C@H]2O[C@H](SC)[C@H](O)[C@@H](O)[C@H]2O)[C@H](C)Cl)N(C)C1 [CLINDAMYCIN]
[19]
  zone of inhibition at 2 µg/mL: 24 mm
[20]
  diameter of the inhibition zone (DIZ): inactive

## COc1ccc(/C=C/C(=O)c2ccccc2)cc1OC
[1]
  diameter of the inhibition zone (DIZ): inactive
[2]
  diameter of the inhibition zone (DIZ): inactive

## O=C(/C=C/c1ccc(Cl)c(Cl)c1)c1ccccc1O
[1]
  diameter of the inhibition zone (DIZ): inactive
[2]
  diameter of the inhibition zone (DIZ): inactive

## COc1ccc(/C=C/C(=O)c2ccc(OC)cc2O)cc1
[1]
  diameter of the inhibition zone (DIZ): inactive
[2]
  diameter of the inhibition zone (DIZ): inactive

## COc1ccc(/C=C/C(=O)c2ccccc2)cc1
[1]
  diameter of the inhibition zone (DIZ): inactive
[2]
  diameter of the inhibition zone (DIZ): inactive

## COc1ccc(C(=O)/C=C/c2ccc(Cl)cc2)c(O)c1
[1]
  diameter of the inhibition zone (DIZ): inactive
[2]
  diameter of the inhibition zone (DIZ): inactive

## COc1cc(/C=C/C(=O)c2ccccc2O)cc(OC)c1OC
[1]
  diameter of the inhibition zone (DIZ): inactive
[2]
  diameter of the inhibition zone (DIZ): inactive
